Experimental data: ChEMBL document CHEMBL4177728, “Protective effects of 6-ureido/thioureido-2,4,5-trimethylpyridin-3-ols against 4-hydroxynonenal-induced cell death in adult retinal pigment epithelial-19 cells” (2018)

What was measured:
[1] = target: T1, NADPH oxidase 4 (Homo sapiens) (UniProt Q9NPH5); test: (§1) Inhibition of NOX4 in human ARPE19 cells assessed as protection against 4-HNE-induced cell death by measuring cell viability recovery at 10 uM incubated for 24 hrs by MTT assay; type: cell-based
T1 sequence (whole entry): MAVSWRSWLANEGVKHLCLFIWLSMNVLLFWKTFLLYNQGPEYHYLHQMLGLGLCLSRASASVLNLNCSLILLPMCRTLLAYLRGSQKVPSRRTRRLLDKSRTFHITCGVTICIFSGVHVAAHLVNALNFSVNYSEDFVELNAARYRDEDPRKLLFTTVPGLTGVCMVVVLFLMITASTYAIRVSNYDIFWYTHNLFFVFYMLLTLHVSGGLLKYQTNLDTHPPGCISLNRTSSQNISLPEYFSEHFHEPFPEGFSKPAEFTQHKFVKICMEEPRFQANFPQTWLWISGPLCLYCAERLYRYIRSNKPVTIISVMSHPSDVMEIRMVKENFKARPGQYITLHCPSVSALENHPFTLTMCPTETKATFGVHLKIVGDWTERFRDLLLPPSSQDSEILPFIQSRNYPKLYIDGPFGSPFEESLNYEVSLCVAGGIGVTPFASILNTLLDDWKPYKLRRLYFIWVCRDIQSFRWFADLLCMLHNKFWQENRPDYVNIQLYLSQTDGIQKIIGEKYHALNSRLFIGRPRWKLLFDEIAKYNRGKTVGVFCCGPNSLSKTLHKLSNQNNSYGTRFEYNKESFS

[2] = target: T1, NADPH oxidase 4 (Homo sapiens); test: (§2) Inhibition of NOX4 in human ARPE19 cells assessed as suppression of 4-HNE-induced superoxide production at 10 uM pre-incubated for 1 hr before 4-HNE addition for 1 hr by lucigenin chemiluminescence assay; type: cell-based
[3] = Antioxidant activity assessed as DPPH radical scavenging activity at 10 uM by spectrphotomery; type: functional
[4] = target: T1, NADPH oxidase 4 (Homo sapiens); test: Inhibition of NOX4 in human ARPE19 cells assessed as protection against 4-HNE-induced cell death by measuring cell viability recovery incubated for 24 hrs by MTT assay; type: cell-based
ARPE-19 [5] = test: Suppression of 4-HNE-induced apoptosis in human ARPE19 cells assessed as viable cells level at 5 uM incubated for 24 hrs by FITC Annexin V and propidium iodide staining based flow cytometry (reference value: 59.1%); type: functional
ARPE-19 [6] = test: Suppression of 4-HNE-induced apoptosis in human ARPE19 cells assessed as early apoptosis cells level at 5 uM incubated for 24 hrs by FITC Annexin V and propidium iodide staining based flow cytometry (reference value: 17.6%); type: functional
ARPE-19 [7] = test: Suppression of 4-HNE-induced apoptosis in human ARPE19 cells assessed as late apoptosis cells level at 5 uM incubated for 24 hrs by FITC Annexin V and propidium iodide staining based flow cytometry (reference value: 23%); type: functional
ARPE-19 [8] = test: Suppression of 4-HNE-induced apoptosis in human ARPE19 cells assessed as necrosis cells level at 5 uM incubated for 24 hrs by FITC Annexin V and propidium iodide staining based flow cytometry (reference value: 0.342%); type: functional
ARPE-19 [9] = test: Suppression of 4-HNE-induced apoptosis in human ARPE19 cells assessed as viable cells level at 10 uM incubated for 24 hrs by FITC Annexin V and propidium iodide staining based flow cytometry (reference value: 59.1%); type: functional
ARPE-19 [10] = test: Suppression of 4-HNE-induced apoptosis in human ARPE19 cells assessed as early apoptosis cells level at 10 uM incubated for 24 hrs by FITC Annexin V and propidium iodide staining based flow cytometry (reference value: 17.6%); type: functional
ARPE-19 [11] = test: Suppression of 4-HNE-induced apoptosis in human ARPE19 cells assessed as late apoptosis cells level at 10 uM incubated for 24 hrs by FITC Annexin V and propidium iodide staining based flow cytometry (reference value: 23%); type: functional
ARPE-19 [12] = test: Suppression of 4-HNE-induced apoptosis in human ARPE19 cells assessed as necrosis cells level at 10 uM incubated for 24 hrs by FITC Annexin V and propidium iodide staining based flow cytometry (reference value: 0.342%); type: functional
ARPE-19 [13] = test: Suppression of 4-HNE-induced apoptosis in human ARPE19 cells assessed as viable cells level at 20 uM incubated for 24 hrs by FITC Annexin V and propidium iodide staining based flow cytometry (reference value: 59.1%); type: functional
ARPE-19 [14] = test: Suppression of 4-HNE-induced apoptosis in human ARPE19 cells assessed as early apoptosis cells level at 20 uM incubated for 24 hrs by FITC Annexin V and propidium iodide staining based flow cytometry (reference value: 17.6%); type: functional
ARPE-19 [15] = test: Suppression of 4-HNE-induced apoptosis in human ARPE19 cells assessed as late apoptosis cells level at 20 uM incubated for 24 hrs by FITC Annexin V and propidium iodide staining based flow cytometry (reference value: 23%); type: functional
ARPE-19 [16] = test: Suppression of 4-HNE-induced apoptosis in human ARPE19 cells assessed as necrosis cells level at 20 uM incubated for 24 hrs by FITC Annexin V and propidium iodide staining based flow cytometry (reference value: 0.342%); type: functional
[17] = target: NADPH oxidase 4 (Homo sapiens) (UniProt Q9NPH5); test: as §1; type: cell-based; remark: listed apart in the source
[18] = target: NADPH oxidase 4 (Homo sapiens) (UniProt Q9NPH5); test: as §2; type: cell-based; remark: listed apart in the source

inhibition [2] [%]	Molecule	Activity [1] [%]	Activity [3] [%]	other results
71.8	Cc1nc(NC(=S)Nc2ccc([N+](=O)[O-])cc2)c(C)c(C)c1O	77.7	5.5	inhibition [4]: Dose-dependent effect
13.9	Cc1nc(NC(=S)NC(C)C)c(C)c(C)c1O	14.7	5.5	–
41.3	Cc1ccc(NC(=S)Nc2nc(C)c(O)c(C)c2C)cc1	54	6.9	–
40.7	CCCCCCCCNC(=S)Nc1nc(C)c(O)c(C)c1C	45.9	14.6	–
79.5	CCCCNC(=S)Nc1nc(C)c(O)c(C)c1C	85.1	5.9	inhibition [4]: Dose-dependent effect; Activity (ARPE-19 [5]): 88.6%; Activity (ARPE-19 [6]): 6.84%; Activity (ARPE-19 [7]): 4.24%; Activity (ARPE-19 [8]): 0.335%; Activity (ARPE-19 [9]): 93.4%; Activity (ARPE-19 [10]): 3.06%; Activity (ARPE-19 [11]): 3.38%; Activity (ARPE-19 [12]): 0.134%; Activity (ARPE-19 [13]): 99.7%; Activity (ARPE-19 [14]): 0.112%; Activity (ARPE-19 [15]): 0.079%; Activity (ARPE-19 [16]): 0.067%
28.6	Cc1ccc(S(=O)(=O)NC(=O)Nc2nc(C)c(O)c(C)c2C)cc1	32.5	5.7	–
2.3	Cc1nc(NC(=S)Nc2ccccc2)c(C)c(C)c1O	8.9	5.6	–
5.8	COc1ccc(NC(=O)Nc2nc(C)c(O)c(C)c2C)cc1	10.8	7.4	–
41.3	Cc1nc(NC(=O)Nc2ccc(C(F)(F)F)cc2)c(C)c(C)c1O	44.2	5.9	–
0.9	Cc1nc(NC(=O)Nc2ccc(Br)cc2)c(C)c(C)c1O	7.3	4	–
6.2	Cc1ccc(NC(=O)Nc2nc(C)c(O)c(C)c2C)cc1	5.3	3.4	–
8.8	Cc1nc(NC(=O)NC(=O)c2ccccc2)c(C)c(C)c1O	1.5	6.7	–
68.7	Cc1nc(NC(=S)NC(=O)c2ccccc2)c(C)c(C)c1O	63.1	4.9	–
9.4	CCCNC(=O)Nc1nc(C)c(O)c(C)c1C	12.5	5.5	–
61.9	Cc1nc(NC(=S)NC2CCCCC2)c(C)c(C)c1O	62.2	7.1	–
30.8	Cc1nc(NC(=O)Nc2ccc(Cl)cc2)c(C)c(C)c1O	43.6	6.2	–
6.9	Cc1nc(NC(=O)Nc2ccc(F)cc2)c(C)c(C)c1O	6.2	7.4	–

inhibition [2] [%]	Molecule	Activity [1] [%]	Activity [3] [%]	other results
20.1	Cc1nc(NC(=S)Nc2cccc(C(F)(F)F)c2)c(C)c(C)c1O	29.6	7.6	–
8.9	Cc1cccc(C(C)(C)C)c1NC(=O)Nc1nc(C)c(O)c(C)c1C	12.8	3.3	–
–	VITAMIN E	–	10.2	Activity [17]: 9.8%; inhibition [18]: 3.9%
2.4	Cc1nc(NC(=O)Nc2cccc3ccccc23)c(C)c(C)c1O	7.3	6.3	–
8.3	Cc1nc(NC(=O)Nc2ccc([N+](=O)[O-])cc2)c(C)c(C)c1O	13.9	5.2	–
51.1	Cc1nc(NC(=O)Nc2ccc(OC(F)(F)F)cc2)c(C)c(C)c1O	58.4	6.1	–
19	Cc1nc(NC(=S)Nc2ccc(Cl)c(Cl)c2)c(C)c(C)c1O	24.9	6.6	–
-1.3	Cc1nc(NC(=O)Nc2ccc(C(C)C)cc2)c(C)c(C)c1O	-5.1	4.2	–
17.9	CCCCCCNC(=S)Nc1nc(C)c(O)c(C)c1C	22.8	16.5	–
13	Cc1nc(NC(=S)Nc2ccc(Cl)cc2)c(C)c(C)c1O	12.8	6.5	–
17.7	COc1ccc(NC(=S)Nc2nc(C)c(O)c(C)c2C)cc1	23.2	4.7	–
7.1	Cc1nc(NC(=O)Nc2ccccc2)c(C)c(C)c1O	8.9	5.8	–
36.7	CCNC(=S)Nc1nc(C)c(O)c(C)c1C	44.9	13.3	–
4.6	Cc1nc(NC(=O)NCc2ccccc2)c(C)c(C)c1O	10.5	6	–
30.5	Cc1nc(NC(=S)Nc2ccc(C(F)(F)F)cc2)c(C)c(C)c1O	40.4	6.7	–
3.4	O=C1O[C@H]([C@@H](O)CO)C(O)=C1O	8.2	10.2	–
22.8	Cc1nc(NC(=S)Nc2ccc(Br)cc2)c(C)c(C)c1O	33.5	7.4	–

Molecule	inhibition [2] [%]	Activity [1] [%]	Activity [3] [%]	other results
c1ccc(Cn2nnc3c(Sc4nc5ccccc5o4)ncnc32)cc1	78.7	79.4	6.9	Activity (ARPE-19 [5]): 80.4%; Activity (ARPE-19 [6]): 11.8%; Activity (ARPE-19 [7]): 7.66%; Activity (ARPE-19 [8]): 0.25%; Activity (ARPE-19 [9]): 89.8%; Activity (ARPE-19 [10]): 5.62%; Activity (ARPE-19 [11]): 4.42%; Activity (ARPE-19 [12]): 0.254%; Activity (ARPE-19 [13]): 95.2%; Activity (ARPE-19 [14]): 2.87%; Activity (ARPE-19 [15]): 1.81%; Activity (ARPE-19 [16]): 0.145%
